Assay results taken from PubChem BioAssay (NCI).
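Results reflect a 48-hour exposure of cells in 96-well plates to compound at five concentrations. Abbreviation: GI50, concentration required for 50% inhibition of growth. TGI denotes the concentration required for complete inhibition of growth.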

How the values were obtained:
Assay in all cases: DTP human tumour cell line panel, 48 h
[1] = tested on: U251 CNS
[2] = tested on: A549 NSCLC
[3] = tested on: SF-295 CNS
[4] = tested on: COLO 205 colon
[5] = tested on: HCT-15 colon
[6] = tested on: SNB-75 CNS
[7] = tested on: UACC-257 melanoma
[8] = tested on: SK-MEL-28 melanoma
[9] = tested on: HL-60(TB) leukemia
[10] = tested on: MDA-MB-231 breast
[11] = tested on: NCI/ADR-RES ovarian
[12] = tested on: MCF7 breast
[13] = tested on: TK-10 renal
[14] = tested on: OVCAR-5 ovarian
[15] = tested on: EKVX NSCLC
[16] = tested on: SN12C renal
[17] = tested on: SK-OV-3 ovarian
[18] = tested on: PC-3 prostate
[19] = tested on: UO-31 renal
[20] = tested on: HT29 colon
[21] = tested on: OVCAR-3 ovarian
[22] = tested on: DU-145 prostate
[23] = tested on: SF-268 CNS
[24] = tested on: HOP-92 NSCLC
[25] = tested on: ACHN renal
[26] = tested on: HCC-2998 colon
[27] = tested on: SF-539 CNS
[28] = tested on: MALME-3M melanoma
[29] = tested on: IGROV1 ovarian
[30] = tested on: CAKI-1 renal
[31] = tested on: LOX IMVI melanoma
[32] = tested on: HOP-62 NSCLC
[33] = tested on: RPMI-8226 leukemia
[34] = tested on: M14 melanoma
[35] = tested on: A498 renal
[36] = tested on: BT-549 breast
[37] = tested on: K-562 leukemia
[38] = tested on: OVCAR-8 ovarian
[39] = tested on: MOLT-4 leukemia
[40] = tested on: SK-MEL-5 melanoma
[41] = tested on: NCI-H23 lung
[42] = tested on: SK-MEL-2 melanoma
[43] = tested on: OVCAR-4 ovarian
[44] = tested on: MDA-MB-435
[45] = tested on: HCT-116 colon
[46] = tested on: KM12 colon
[47] = tested on: NCI-H226 lung
[48] = tested on: SNB-19 CNS
[49] = tested on: T-47D breast
[50] = tested on: HS 578T breast
[51] = tested on: 786-0 renal
[52] = tested on: SW-620 colon
[53] = tested on: UACC-62 melanoma
[54] = tested on: NCI-H522 lung
[55] = tested on: NCI-H460 lung
[56] = tested on: CCRF-CEM leukemia
[57] = tested on: RXF 393 renal

O=C(CCCBr)Nc1ccccc1C#C/C=C\C#Cc1ccccc1C(F)(F)F
GI50 [1]: 11.3 µM
TGI [1]: 31.1 µM
GI50 [2]: 19.3 µM
TGI [2]: > 50 µM
GI50 [3]: 27.6 µM
TGI [3]: > 50 µM
GI50 [4]: > 50 µM
TGI [4]: > 50 µM
GI50 [5]: 20.6 µM
TGI [5]: > 50 µM
GI50 [6]: 9.07 µM
TGI [6]: 40.6 µM
GI50 [7]: 19.1 µM
TGI [7]: > 50 µM
GI50 [8]: 10.3 µM
TGI [8]: 25.7 µM
GI50 [9]: 16.1 µM
TGI [9]: 45 µM
GI50 [10]: 12.8 µM
TGI [10]: 33.4 µM
GI50 [11]: 11.9 µM
TGI [11]: 29.2 µM
GI50 [12]: 26.6 µM
TGI [12]: > 50 µM
GI50 [13]: 38.8 µM
TGI [13]: > 50 µM
GI50 [14]: > 50 µM
TGI [14]: > 50 µM
GI50 [15]: 39.1 µM
TGI [15]: > 50 µM
GI50 [16]: 10.6 µM
TGI [16]: 29.9 µM
GI50 [17]: > 50 µM
TGI [17]: > 50 µM
GI50 [18]: 23.1 µM
TGI [18]: > 50 µM
GI50 [19]: 20.2 µM
TGI [19]: > 50 µM
GI50 [20]: 8.56 µM
TGI [20]: 20.8 µM
GI50 [21]: 13.3 µM
TGI [21]: 48.9 µM
GI50 [22]: > 50 µM
TGI [22]: > 50 µM
GI50 [23]: 35.3 µM
TGI [23]: > 50 µM
GI50 [24]: 19.7 µM
TGI [24]: > 50 µM
GI50 [25]: 26.8 µM
TGI [25]: > 50 µM
GI50 [26]: 7.25 µM
TGI [26]: 20.3 µM
GI50 [27]: 21.2 µM
TGI [27]: > 50 µM
GI50 [28]: 18.7 µM
TGI [28]: > 50 µM
GI50 [29]: 6.75 µM
TGI [29]: 26.9 µM
GI50 [30]: 15.3 µM
TGI [30]: > 50 µM
GI50 [31]: 22.6 µM
TGI [31]: > 50 µM
GI50 [32]: 4.76 µM
TGI [32]: 20.6 µM
GI50 [33]: 14.2 µM
TGI [33]: > 50 µM
GI50 [34]: 12.1 µM
TGI [34]: 29.5 µM
GI50 [35]: 15.8 µM
TGI [35]: 47.3 µM
GI50 [36]: 19.8 µM
TGI [36]: > 50 µM
GI50 [37]: 21.6 µM
TGI [37]: > 50 µM
GI50 [38]: 24.2 µM
TGI [38]: > 50 µM
GI50 [39]: 16.3 µM
TGI [39]: > 50 µM
GI50 [40]: 38.3 µM
TGI [40]: > 50 µM
GI50 [41]: 16.2 µM
TGI [41]: > 50 µM
GI50 [42]: 27.8 µM
TGI [42]: > 50 µM
GI50 [43]: 10.1 µM
TGI [43]: 31.9 µM
GI50 [44]: 13.5 µM
TGI [44]: 32.6 µM
GI50 [45]: 10.9 µM
TGI [45]: 43.7 µM
GI50 [46]: 17.4 µM
TGI [46]: > 50 µM
GI50 [47]: 13.9 µM
TGI [47]: 44.8 µM
GI50 [48]: > 50 µM
TGI [48]: > 50 µM
GI50 [49]: > 50 µM
TGI [49]: > 50 µM
GI50 [50]: 36.5 µM
TGI [50]: > 50 µM
GI50 [51]: 13.5 µM
TGI [51]: > 50 µM
GI50 [52]: 22.5 µM
TGI [52]: > 50 µM
GI50 [53]: 14.1 µM
TGI [53]: > 50 µM
GI50 [54]: 15.5 µM
TGI [54]: > 50 µM
GI50 [55]: 19.2 µM
TGI [55]: > 50 µM
GI50 [56]: 15 µM
TGI [56]: 35.7 µM
GI50 [57]: 8.35 µM
TGI [57]: 28.4 µM

CN(C)CCNc1c2c(c(NCCN(C)C)c3c(CN(C)C)c[nH]c13)C(=O)c1ccccc1C2=O
GI50 [1]: 2.57 µM
TGI [1]: 10.4 µM
GI50 [2]: 2.88 µM
TGI [2]: 9.98 µM
GI50 [3]: 3.14 µM
TGI [3]: 9.83 µM
GI50 [4]: 13.6 µM
TGI [4]: > 53.8 µM
GI50 [5]: 1.35 µM
TGI [5]: 6.98 µM
GI50 [6]: 19.2 µM
TGI [6]: 40.9 µM
GI50 [7]: 9.15 µM
TGI [7]: > 27.4 µM
GI50 [8]: 16.7 µM
TGI [8]: 38.2 µM
GI50 [9]: 3.02 µM
TGI [9]: 7.48 µM
GI50 [10]: 1.61 µM
TGI [10]: 9.39 µM
GI50 [11]: 4.53 µM
TGI [11]: 20.5 µM
GI50 [12]: 1.81 µM
TGI [12]: 10 µM
GI50 [13]: 2.08 µM
TGI [13]: 7.06 µM
GI50 [14]: 16 µM
TGI [14]: 34.6 µM
GI50 [15]: 4.31 µM
TGI [15]: 17.3 µM
GI50 [16]: 1.18 µM
TGI [16]: 7.32 µM
GI50 [17]: 17.4 µM
TGI [17]: 40.2 µM
GI50 [18]: 0.612 µM
TGI [18]: 3.2 µM
GI50 [19]: 3.76 µM
TGI [19]: 16.8 µM
GI50 [20]: 2.56 µM
TGI [20]: 27.4 µM
GI50 [21]: 4.29 µM
TGI [21]: 23.9 µM
GI50 [22]: 4.2 µM
TGI [22]: 15.1 µM
GI50 [23]: 5.39 µM
TGI [23]: 22.1 µM
GI50 [24]: 2.91 µM
TGI [24]: 15.8 µM
GI50 [25]: 1.15 µM
TGI [25]: 5.88 µM
GI50 [26]: 2.14 µM
TGI [26]: 8.61 µM
GI50 [27]: 3.85 µM
TGI [27]: 10.2 µM
GI50 [28]: 6.5 µM
TGI [28]: 15.7 µM
GI50 [29]: 2.22 µM
TGI [29]: 11.7 µM
GI50 [30]: 4.73 µM
TGI [30]: 11.5 µM
GI50 [31]: 1.05 µM
TGI [31]: 2.73 µM
GI50 [32]: 0.946 µM
TGI [32]: 11.9 µM
GI50 [33]: 0.545 µM
TGI [33]: 2.26 µM
GI50 [34]: 2.48 µM
TGI [34]: 7.57 µM
GI50 [35]: 18.7 µM
TGI [35]: 33.6 µM
GI50 [36]: 18.2 µM
TGI [36]: 36.9 µM
GI50 [37]: 2.59 µM
TGI [37]: 14.6 µM
GI50 [38]: 2.16 µM
TGI [38]: 14.2 µM
GI50 [39]: 0.582 µM
TGI [39]: > 38.1 µM
GI50 [40]: 5.65 µM
TGI [40]: 10.6 µM
GI50 [41]: 3.91 µM
TGI [41]: 14.6 µM
GI50 [42]: 18.3 µM
TGI [42]: 42.9 µM
GI50 [43]: 8.23 µM
TGI [43]: 34.1 µM
GI50 [44]: 2.75 µM
TGI [44]: 8.04 µM
GI50 [45]: 0.676 µM
TGI [45]: > 100 µM
GI50 [46]: 1.6 µM
TGI [46]: 7.3 µM
GI50 [47]: 15 µM
TGI [47]: 35.5 µM
GI50 [48]: 16.1 µM
TGI [48]: 40 µM
GI50 [49]: 22.3 µM
TGI [49]: 46.8 µM
GI50 [50]: 7.49 µM
TGI [50]: 19 µM
GI50 [51]: 0.356 µM
TGI [51]: 8.91 µM
GI50 [52]: 2.7 µM
TGI [52]: 9.72 µM
GI50 [53]: 14.7 µM
TGI [53]: 29.9 µM
GI50 [54]: 3.39 µM
TGI [54]: 18.7 µM
GI50 [55]: 2.2 µM
TGI [55]: 9.49 µM
GI50 [56]: 0.639 µM
TGI [56]: 2.58 µM
GI50 [57]: 3.71 µM
TGI [57]: 19.5 µM
